The values below are quoted from earlier work in article PMC6007947, “Sensitivity of pretargeted immunoPET using ^68Ga-peptide to detect colonic carcinoma liver metastases in a murine xenograft model: Comparison with ^18FDG PET-CT” (Oncotarget, 2018).

The conditions of the data set: stated in discussion. The source says: Pretargeting is one way to improve tumor uptake and tumor to normal organ uptake ratios by reducing the molecular size of the radioactive agent and using a non-radiolabeled bispecific antibody, such as TF2. TF2 is a humanized bispecific monoclonal antibody produced by the Dock-and-Lock® technology, containing two anti-CEA Fab fragments and another Fab fragment binding the HSG hapten component of the IMP288 hapten peptide. Compared to previously used bispecific antibodies with a single binding site for the tumor antigen and another for the hapten, this bivalency is expected to increase t ...

As for “DOTA-D-Tyr-D-Lys(HSG)-D-Glu-D-Lys(HSG)-NH2 [IMP288, DOTA-conjugated tetrapeptide containing two HSG hapten structures]”, the Clearance from blood entry is “within an hour”.
